In patent publication US20090220997A1, “Stimulating G Protein-Coupled Receptors” (MAYO FOUNDATION FOR MEDICAL EDUCATION AND RESEARCH, priority 2005, published 2009):
Bridge positions count the residues as written; N and C are the ends. Square brackets hold non-standard residues; d marks the D form. Ends that are not written are not given here. Dap = NC[C@H](N)C(=O)O

Experiments:
secretin receptor = biological target: T1, secretin receptor (Rattus norvegicus, UniProt P23811); assay: cAMP accumulation in CHO cells expressing the secretin receptor (CHO-SecR); format: cell-based; settings: for agonist activity (stimulation of cAMP accumulation): 30 min at 37° C.; for potency (cAMP accumulation), relative comparison: secretin receptor (SecR)
T1 construct: expressed in transfected cells; host or cells: CHO (CHO-SecR)
T1 sequence (P23811 26-449): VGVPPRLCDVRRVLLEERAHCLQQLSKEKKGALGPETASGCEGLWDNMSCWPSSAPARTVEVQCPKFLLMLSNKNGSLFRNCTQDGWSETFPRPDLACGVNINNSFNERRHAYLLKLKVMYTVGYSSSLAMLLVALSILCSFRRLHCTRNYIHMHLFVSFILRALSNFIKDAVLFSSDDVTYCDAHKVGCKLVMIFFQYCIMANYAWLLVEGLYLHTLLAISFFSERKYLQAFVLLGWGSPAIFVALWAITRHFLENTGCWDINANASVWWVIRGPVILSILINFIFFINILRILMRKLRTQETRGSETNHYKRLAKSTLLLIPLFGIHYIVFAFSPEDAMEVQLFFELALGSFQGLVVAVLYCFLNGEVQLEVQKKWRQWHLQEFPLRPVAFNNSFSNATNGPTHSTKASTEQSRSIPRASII
Text: (§1) FIG. 2 contains a series of graphs plotting accumulation of cAMP versus concentration of polypeptide used to stimulate cells. Presented in panel A are curves of cAMP accumulation in Chinese hamster ovary cells expressing the secretin receptor (CHO-SecR), and in the cells of the parental CHO cell line not expressing the secretin receptor, in response to increasing concentrations of secretin or a synthetic polypeptide (SEQ ID NO:1) corresponding to the region of the amino terminus of the secretin receptor between the first and third conserved cysteine residues, Cys^24 and Cys^53 (corresponding to residues 46 to 75 of GenBank Accession Number AAH81781). Presented in panel B are curves of cAMP accumulation in CHO-SecR cells in response to increasing concentrations of the indicated pentapeptide (SEQ ID NO:3), tripeptides, or dipeptides. Presented in panel C are curves of cAMP accumulation in CHO-SecR cells in response to increasing concentrations of a linear tripeptide, cyclic tripeptides, or a myristolated cyclic tripeptide. Adherent cells that were 75 percent confluent were stimulated with the polypeptide in Krebs-Ringers-HEPES medium for 30 min at 37° C. Cellular cAMP was quantified as previously reported (Holtmann et al., J. Biol. Chem. 270, 14394 (1995)). Values represent means±S.E.M. of data from a minimum of three independent assays performed in duplicate. Myr indicates myristoylated cyclic tripeptide.
It was determined whether a synthetic polypeptide corresponding to the region of the secretin receptor amino terminus between residues 24 and 53 (FIG. 1), which shares no homology with any part of the natural agonist polypeptide, could act as an endogenous agonist ligand. […] The cAMP response was dependent on the concentration of the polypeptide. […] The polypeptide had no effect on cAMP levels in the parental CHO cell line, even at concentrations as high as 100 μM (FIG. 2A).

human GLP1R = human GLP1R (Homo sapiens, UniProt P43220); assay: cAMP accumulation in cells expressing the GLP1R; format: cell-based
Chain of human GLP1R (P43220 24-463 L260F/A316G): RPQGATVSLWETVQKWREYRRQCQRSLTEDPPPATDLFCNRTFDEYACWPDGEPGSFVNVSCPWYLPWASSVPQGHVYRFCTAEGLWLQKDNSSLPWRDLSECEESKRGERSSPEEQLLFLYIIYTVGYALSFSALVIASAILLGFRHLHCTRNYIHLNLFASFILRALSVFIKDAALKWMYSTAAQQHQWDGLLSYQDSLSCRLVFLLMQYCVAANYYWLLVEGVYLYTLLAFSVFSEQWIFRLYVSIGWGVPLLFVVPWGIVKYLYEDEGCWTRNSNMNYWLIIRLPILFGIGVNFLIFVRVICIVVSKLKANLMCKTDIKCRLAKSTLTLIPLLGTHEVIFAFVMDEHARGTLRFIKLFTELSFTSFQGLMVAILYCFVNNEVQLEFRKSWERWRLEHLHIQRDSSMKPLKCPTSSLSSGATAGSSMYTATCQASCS
Method: (§2) FIG. 6 contains a series of graphs plotting cAMP accumulation versus concentration of the WDN tripeptide or amino-terminal polypeptides from the VPAC1 receptor (residues 51-71; SEQ ID NO:4), the calcitonin receptor (residues 73-80; SEQ ID NO:6), and the GLP1R (residues 63-70; SEQ ID NO:22) that were used to stimulate cells expressing Class B receptors as indicated.
Additional experiments were performed and curves were regenerated (FIG. 6), as described herein and as described elsewhere (Dong et al., Mol. Pharmacol., 70(1):206-13 (2006)). […] Each polypeptide used to generate the data presented in FIG. 6 was a cyclic polypeptide, except for the VPAC1(51-71) polypeptide. Linear versions of each polypeptide were also tested and found to behave in a similar manner as the corresponding cyclic polypeptides, with similar potencies and efficacies.

VPAC1 receptor = biological target: T2, VPAC1 receptor (Rattus norvegicus, UniProt P30083); assay: cAMP accumulation in cells expressing the VPAC1 receptor; format: cell-based
T2 sequence (P30083 31-459): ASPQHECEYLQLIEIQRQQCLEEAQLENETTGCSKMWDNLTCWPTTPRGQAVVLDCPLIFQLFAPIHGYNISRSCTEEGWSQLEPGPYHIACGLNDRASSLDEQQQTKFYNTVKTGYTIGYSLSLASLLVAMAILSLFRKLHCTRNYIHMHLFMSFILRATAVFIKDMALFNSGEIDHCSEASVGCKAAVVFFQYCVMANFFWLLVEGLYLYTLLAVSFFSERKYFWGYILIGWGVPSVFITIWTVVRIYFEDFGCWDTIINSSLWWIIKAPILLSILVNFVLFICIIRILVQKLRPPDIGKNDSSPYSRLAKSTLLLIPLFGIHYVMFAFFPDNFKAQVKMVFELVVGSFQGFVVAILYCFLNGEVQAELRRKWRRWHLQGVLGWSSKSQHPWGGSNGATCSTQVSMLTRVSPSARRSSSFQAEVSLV
Text: (§3) FIG. 4 contains a series of graphs plotting cAMP accumulation versus concentration of amino-terminal polypeptides from the calcitonin (residues 73-80; SEQ ID NO:6) and VPAC1 (residues 51-71; SEQ ID NO:4) receptors that were used to stimulate cells expressing Class B receptors.
as §2
(§4) Polypeptides representing the analogous region of the amino terminus of the Class B G protein-coupled calcitonin and VPAC1 receptors (FIG. 1) were also synthesized. […] The agonist activity of these endogenous polypeptides was not limited to the corresponding receptors. The polypeptides were also active at other structurally-related family members (FIG. 4).
(§5) Additional experiments were performed and curves were regenerated (FIG. 6), as described herein and as described elsewhere (Dong et al., Mol. Pharmacol., 70(1):206-13 (2006)). […] Each polypeptide used to generate the data presented in FIG. 6 was a cyclic polypeptide, except for the VPAC1(51-71) polypeptide. […]

[1] = test system: parental CHO cell line not expressing the secretin receptor; assay: cAMP accumulation in parental CHO cell line; format: cell-based, Chinese hamster; settings: concentrations as high as 100 μM
Text: as §1, with “Presented in panel C are curves of cAMP accumulation in CHO-SecR cells in response to increasing concentrations of a linear tripeptide, cyclic tripeptides, or a myristolated cyclic tripeptide. Adherent cells that were 75 percent confluent were stimulated with the polypeptide in Krebs-Ringers-HEPES medium for 30 min at 37° C.” left out, “Values represent means±S.E.M. of data from a minimum of three independent assays performed in duplicate. Myr indicates myristoylated cyclic tripeptide.” left out
It was determined whether a synthetic polypeptide corresponding to the region of the secretin receptor amino terminus between residues 24 and 53 (FIG. 1), which shares no homology with any part of the natural agonist polypeptide, could act as an endogenous agonist ligand. […]

[2] = test system: Class A G protein-coupled cholecystokinin receptor; assay: cAMP levels in CHO cell lines expressing cholecystokinin receptor; format: cell-based; settings: CHO cell lines expressing high concentrations of cholecystokinin receptor
calcitonin receptor = biological target: T3, calcitonin receptor (Homo sapiens, UniProt P30988); assay: cAMP accumulation in cells expressing the calcitonin receptor; format: cell-based
T3 sequence (P30988 25-474): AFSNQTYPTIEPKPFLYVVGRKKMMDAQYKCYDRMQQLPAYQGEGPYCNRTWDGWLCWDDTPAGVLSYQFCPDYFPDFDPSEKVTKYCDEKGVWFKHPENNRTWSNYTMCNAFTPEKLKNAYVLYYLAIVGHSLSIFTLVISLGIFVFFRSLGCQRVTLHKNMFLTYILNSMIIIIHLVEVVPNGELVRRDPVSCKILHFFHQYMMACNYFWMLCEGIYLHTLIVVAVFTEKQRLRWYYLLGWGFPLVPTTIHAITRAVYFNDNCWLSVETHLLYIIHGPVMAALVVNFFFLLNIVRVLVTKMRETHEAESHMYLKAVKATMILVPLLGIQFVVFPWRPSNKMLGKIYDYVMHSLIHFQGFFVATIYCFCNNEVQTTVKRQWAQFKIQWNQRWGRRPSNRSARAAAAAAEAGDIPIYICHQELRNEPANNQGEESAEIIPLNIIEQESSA
Text: as §3, §4

Class B receptors = assay: cAMP accumulation in cells expressing Class B receptors; format: cell-based; settings: receptors other than the corresponding receptor
Text: as §3, §2, §4, §5

## leucine-tryptophan-aspartate-asparagine-methionine [LWDNM]
Secretin receptor; CHO-SecR cells
  agonist activity (stimulation of cAMP accumulation): Agonist activity was maintained

## cyclic WDN (tryptophan-aspartate-asparagine) tripeptide
Secretin receptor; CHO-SecR cells
  efficacy (cAMP accumulation): maintained full efficacy
Secretin receptor
  potency (cAMP accumulation), relative comparison: enhanced relative to that of the linear polypeptide
Human GLP1R
  agonist activity (cAMP accumulation): active as agonists

## tryptophan-aspartate-asparagine [linear tripeptide]
Secretin receptor; CHO-SecR cells
  agonist activity (stimulation of cAMP accumulation): stimulated cAMP accumulation

## GLP1R(63-70): polypeptide corresponding to amino acid residues 63 to 70 of the human GLP1R (NRTFDEYA; listed as Homo sapiens)
Secretin receptor; CHO-SecR cells
  agonist activity (stimulation of cAMP accumulation): active as an agonist
VPAC1 receptor
  agonist activity (cAMP accumulation): active as an agonist
Human GLP1R
  agonist activity (cAMP accumulation): active as an agonist

## myristoylated cyclic tripeptide: cyclic WDN polypeptide modified by fatty acid acylation (myristoyl group) ([Dap]WDND; lactam N-C; also: myristoyl group, site not given here)
Secretin receptor
  potency (cAMP accumulation), relative comparison: further enhanced

## SecR(24-53): polypeptide corresponding to amino acids 46 to 75 of the rat secretin receptor (SEQ ID NO:1) ([Dap]CLQQLSKEKKGALGPETASGSEGLWDNMSCD; cysteine pairing not given here)
Secretin receptor; CHO-SecR cells
  agonist activity (stimulation of cAMP accumulation): weakly potent agonist
[1]
  effect on cAMP levels: no effect
[2]
  effect on cAMP levels: did not affect cAMP levels

## CTR(73-80): polypeptide corresponding to amino acids 73 to 80 of the human calcitonin receptor ([Dap]NRTWDGWLD; not fully specified (bridges); listed as Homo sapiens)
Calcitonin receptor
  agonist activity (cAMP accumulation): low potency agonist activity
Class B receptors
  activity at other structurally-related family members: also active

## VPAC1(51-71): polypeptide corresponding to amino acids 51 to 71 of the rat VPAC1 receptor ([Dap]LEEAQLENETTGSSKMWDNLTD; not fully specified (bridges))
VPAC1 receptor
  agonist activity (cAMP accumulation): low potency agonist activity
Human GLP1R
  agonist activity (cAMP accumulation): active as agonists
Class B receptors
  activity at other structurally-related family members: also active
